The target in assay [1] is T1, C-X-C chemokine receptor type 2 (Homo sapiens, UniProt P25025).
T1 sequence (P25025 whole entry): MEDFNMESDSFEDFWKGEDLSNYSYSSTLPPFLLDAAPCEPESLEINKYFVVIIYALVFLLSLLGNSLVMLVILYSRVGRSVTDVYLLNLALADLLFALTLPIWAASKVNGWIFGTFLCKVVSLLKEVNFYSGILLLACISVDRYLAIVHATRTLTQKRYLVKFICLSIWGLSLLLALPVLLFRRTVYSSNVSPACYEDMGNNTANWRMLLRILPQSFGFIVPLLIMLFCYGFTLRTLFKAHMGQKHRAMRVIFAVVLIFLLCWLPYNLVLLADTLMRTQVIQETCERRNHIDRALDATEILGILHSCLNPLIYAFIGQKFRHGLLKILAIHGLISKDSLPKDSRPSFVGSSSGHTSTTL
Kind of assay: Antagonist activity at CXCR2 (unknown origin).

Assay [2] has as its target T2, Bifunctional epoxide hydrolase 2 (Homo sapiens, UniProt P34913).
T2 sequence (P34913 whole entry): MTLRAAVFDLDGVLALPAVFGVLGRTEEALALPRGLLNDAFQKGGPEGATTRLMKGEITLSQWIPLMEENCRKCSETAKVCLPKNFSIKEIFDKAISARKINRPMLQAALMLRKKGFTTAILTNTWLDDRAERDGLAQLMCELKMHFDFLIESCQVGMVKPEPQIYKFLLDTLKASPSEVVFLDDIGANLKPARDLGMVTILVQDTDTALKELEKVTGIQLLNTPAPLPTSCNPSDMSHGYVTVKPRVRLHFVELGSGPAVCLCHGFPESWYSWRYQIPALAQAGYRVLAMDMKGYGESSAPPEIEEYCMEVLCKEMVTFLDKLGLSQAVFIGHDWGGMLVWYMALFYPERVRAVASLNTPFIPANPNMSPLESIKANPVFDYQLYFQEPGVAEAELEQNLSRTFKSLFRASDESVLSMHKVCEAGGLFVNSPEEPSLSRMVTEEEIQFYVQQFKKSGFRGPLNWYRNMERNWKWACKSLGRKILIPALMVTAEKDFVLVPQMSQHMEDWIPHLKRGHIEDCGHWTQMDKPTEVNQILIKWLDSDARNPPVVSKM
Kind of assay: Inhibition of recombinant soluble epoxide hydrolase (unknown origin) using [3H]1,3-diphenyl-trans-propene oxide as substrate assessed as inhibition constant incubated for 5 mins.

Assay [3] deals with T3, Neuropeptide Y receptor type 1 (Homo sapiens, UniProt P25929).
T3 sequence (P25929 whole entry): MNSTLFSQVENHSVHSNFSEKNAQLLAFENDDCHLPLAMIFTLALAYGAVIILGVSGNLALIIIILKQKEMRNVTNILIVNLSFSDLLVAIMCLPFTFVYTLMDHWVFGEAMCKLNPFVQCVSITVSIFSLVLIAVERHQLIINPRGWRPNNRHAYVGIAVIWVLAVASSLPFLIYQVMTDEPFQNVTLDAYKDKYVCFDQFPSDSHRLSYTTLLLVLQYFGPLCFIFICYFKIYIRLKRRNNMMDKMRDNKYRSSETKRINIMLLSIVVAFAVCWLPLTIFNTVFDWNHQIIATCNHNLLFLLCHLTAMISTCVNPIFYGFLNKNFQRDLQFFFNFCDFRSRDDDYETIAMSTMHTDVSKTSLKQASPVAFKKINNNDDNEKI
Kind of assay: Displacement of 125I-PYY from human neuropeptide Y Y1 receptor expressed in human SK-N-MC cell membrane assessed as inhibition constant incubated for 1 hrs by competitive binding assay.

pIC50, pKi: −log10 of the molar value.

Regarding `CN(C)C(=O)c1cccc(Nc2c(Nc3ccccc3)c(=O)c2=O)c1O` [3-(3,4-dioxo-2-(phenylamino)cyclobut-1-enylamino)-2-hydroxy-N,N-dimethylbenzamide], the negative logarithm of the IC50 (pIC50) in assay [1] was 8.70.
Turning to `CCCCCCCCCCCCNC(=O)NC1CCCCC1` [US8815951, 297], the pKi in assay [2] was 8.15.
With `COC(=O)C1=CNC(C)=C(C(=O)OC)C1c1cccc(Nc2c(NCCCN3CCC(c4cccc(OC)c4)CC3)c(=O)c2=O)c1` (stereo unspecified), the pKi in assay [3] was 7.68.
Still for that read-out and setting: the figure for `COC(=O)C1=CNC(C)=C(C(=O)OC)C1c1cccc(Nc2nnc(CN3CCC(c4cccc(OC)c4)CC3)o2)c1` (stereo unspecified) is 7.00; for `COC(=O)C1=CNC(C)=C(C(=O)OC)C1c1cccc(N/C(=N/C#N)NCCCN2CCC(c3cccc(OC)c3)CC2)c1` (stereo unspecified) it is 8.29; for `COC(=O)C1=C(C)NC(C)=C(C(=O)OC)C1c1cccc(NC(=O)NCCCN2CCC(c3cccc(OC)c3)CC2)c1` it is 8.48.

(Values after BindingDB's records for doi:10.1021/jm050060l (University of Perugia Via Del Liceo, 2021).)
